# Measured values published in patent publication US10765128B2, “Composition for prevention or treatment of metabolic syndrome or for antioxidation containing black bean leaf extracts and flavonol glysosides isolated therefrom as active ingredients” (KOREA RESEARCH INSTITUTE OF BIOSCIENCE AND BIOTECHNOLOGY, priority 2015, dated 2020).
# Like-named read-outs stand apart in the source and are kept apart here.
# Tests used:
# [1] = system: LDL (low-density lipoprotein); assay: LDL-antioxidant activity, Cu2+-induced LDL oxidation (TBARS method); type: biochemical; conditions: for LDL Oxidation Inhibitory Activity: sample concentration 100 μM; for IC50: read-out: LDL Oxidation Inhibitory Activity, IC50 value
# From the text: Med. Chemn. Lett. 14: 2719-2723, 2004). Results thereof were shown in a following Table 9.
# [2] = DPPH radical scavenging activity; conditions: sample concentration 50 μM
# Description: Two mL of a DPP solution was mixed in 1 mL of a test substance solution, after which a resulting mixture was stirred well. An optical density was measured at 517 nm at an interval of 1 minute for 20 minutes by using an UV/Vis spectrophotometer to evaluate the degree of DPPH radical scavenging activity.
# MIN6 β-cells = assay: insulin secretion in 30 mM glucose-induced MIN6 β-cells (ELISA insulin kit); type: cell-based, mouse; conditions: for activation at 100 µM: Mus musculus, MIN6, 0.5 h, sample concentration 100 μM, read-out: Increase (%) in Insulin Secretion Amount in 30 mM Glucose-induced MIN6 Pancreatic β-Cells; for increase in amount of insulin secretion relative to its aglycone: 100 μM, Formula 4 vs quercetin, Formula 7 vs isorhamnetin
# Description: MIN6 β-cells, which is a mouse pancreatic. β-cell strain, was cultured in DMEM (Lonza Co.) containing 15% FBS (Gibco Co.), 100 units/ml penicillin, and 100 μg/ml streptomycin at 37° C. in a humid 5% CO2 incubator.
# MIN6 cells were seeded into a 24-well plate (1×10^5 cells/well) and cultured at 37° C. in a humid 5% CO2 Incubator. In 48 hours later, the medium was first replaced with a DMEM without glucose contained therein, after which a resulting medium was left alone for 60 minutes, such that the black soybean (seoritae) leaf extract and the flavonol glycoside compounds, samples of the present invention, were treated at a certain concentration, into the DMEM with 30 mM glucose contained therein, thus being reacted for 30 minutes. A control group was one without a sample added therein under the same condition as described above, and the insulin secreted into the medium was measured by using an ELISA insulin kit (Alpco diagnostics). […]
# human recombinant DPP-IV = target: T1, human recombinant DPP-IV (Homo sapiens, UniProt P27487); assay: DPP-4 inhibitory activity (Ala-Pro-AFC substrate, fluorometer); type: biochemical; conditions: for inhibition at 200 µM: read-out: DPP-4 Inhibitory Activity (%); for DPP-4 Inhibitory Activity (%): 200 µM
# T1 construct: purchased ProSpec
# T1 sequence (P27487 whole entry): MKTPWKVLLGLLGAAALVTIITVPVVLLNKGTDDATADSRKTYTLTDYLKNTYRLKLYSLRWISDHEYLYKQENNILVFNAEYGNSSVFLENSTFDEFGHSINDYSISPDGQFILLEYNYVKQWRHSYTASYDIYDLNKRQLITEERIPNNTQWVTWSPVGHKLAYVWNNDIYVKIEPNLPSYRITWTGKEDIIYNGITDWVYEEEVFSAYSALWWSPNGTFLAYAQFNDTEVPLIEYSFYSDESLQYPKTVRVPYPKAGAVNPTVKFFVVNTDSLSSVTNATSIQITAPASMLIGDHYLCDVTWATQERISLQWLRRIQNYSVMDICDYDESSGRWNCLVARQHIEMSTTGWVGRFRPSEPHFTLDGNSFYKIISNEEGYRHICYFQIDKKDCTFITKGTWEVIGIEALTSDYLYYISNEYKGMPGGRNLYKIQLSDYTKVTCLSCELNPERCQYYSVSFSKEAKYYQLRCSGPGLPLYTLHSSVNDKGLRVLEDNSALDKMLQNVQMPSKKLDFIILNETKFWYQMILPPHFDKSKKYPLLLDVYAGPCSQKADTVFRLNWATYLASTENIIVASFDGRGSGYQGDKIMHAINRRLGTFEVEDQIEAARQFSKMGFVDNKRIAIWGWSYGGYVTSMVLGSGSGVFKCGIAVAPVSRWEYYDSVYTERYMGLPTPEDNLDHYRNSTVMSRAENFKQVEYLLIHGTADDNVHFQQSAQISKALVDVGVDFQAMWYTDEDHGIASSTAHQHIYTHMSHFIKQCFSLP
# Description: Particularly, the black soybean (Seoritae) leaf extract (100 μg/ml) and the flavonol glycoside compound (200 μM) were dissolved in DMSO to prepare a sample solution. Then, 10 μl of a human recombinant DPP-IV (ProSpec, the U.S.) at a concentration of 1 μg/ml, 78 μl of an incubation buffer solution (50 mM Tris, pH 7.5), and 2 μl of the sample solution prepared above were added to a 96-well microplate, after which 16 μl (a final concentration reached 40 μM) of a substrate alanine-proline-7-amino-4-trifluoromethyl-coumarin (Ala-Pro-AFC) (Enzyme System Product Co.) was added therein, and initiated the reaction. After a reaction progressed at a room temperature for 60 minutes, an amount of AFC, which was a product generated, was measured by using a fluorometer, and identified DPP4 inhibitory activities of the black soybean (Seoritae) leaf extract and the flavonol glycoside compounds by means of Equation 1. […] DPP-4Inhibitory activity (%)=100−(A/A1×100) [Equation 1]
# A: AFC concentration of sample
# A1: AFC concentration of a negative control group
# RAW264.7 cells = assay: ROS accumulation inhibitory activity in LPS-stimulated RAW264.7 cells (DCFH2-DA); type: cell-based; conditions: Mus musculus, sample concentration 100 μM, LPS 1 μg/ml
# Description: A test substance for each concentration was prepared with DMEM, after which the test substance was added by each 100 μL/well therein, thus being reacted for 2 hours. Then, the cells were stimulated for 18 hours with LPS (1 μg/ml) treatment, such that DCFH2-DA (2′,7′-dichlorofluorescein diacetate) was added therein at a final concentration of 15 μM, thus being reacted for 30 minutes. Once a reaction was finished, the cells were washed five times with PBS and which a fluorescence value of DCF was measured on a spectrofluorimeter (480/530, ex/em). (Hayakaya M. et. al., EMBO J., 22: 3356-3866, 2003).
# [3] = target: α-glucosidase (EC 3.2.1.20, Baker Yeast) (Saccharomyces cerevisiae, UniProt P53341); assay: α-glucosidase inhibitory activity (nitrophenol method); type: biochemical; conditions: sample concentration 100 μM
# Sequence of α-glucosidase (EC 3.2.1.20, Baker Yeast) (P53341 whole entry): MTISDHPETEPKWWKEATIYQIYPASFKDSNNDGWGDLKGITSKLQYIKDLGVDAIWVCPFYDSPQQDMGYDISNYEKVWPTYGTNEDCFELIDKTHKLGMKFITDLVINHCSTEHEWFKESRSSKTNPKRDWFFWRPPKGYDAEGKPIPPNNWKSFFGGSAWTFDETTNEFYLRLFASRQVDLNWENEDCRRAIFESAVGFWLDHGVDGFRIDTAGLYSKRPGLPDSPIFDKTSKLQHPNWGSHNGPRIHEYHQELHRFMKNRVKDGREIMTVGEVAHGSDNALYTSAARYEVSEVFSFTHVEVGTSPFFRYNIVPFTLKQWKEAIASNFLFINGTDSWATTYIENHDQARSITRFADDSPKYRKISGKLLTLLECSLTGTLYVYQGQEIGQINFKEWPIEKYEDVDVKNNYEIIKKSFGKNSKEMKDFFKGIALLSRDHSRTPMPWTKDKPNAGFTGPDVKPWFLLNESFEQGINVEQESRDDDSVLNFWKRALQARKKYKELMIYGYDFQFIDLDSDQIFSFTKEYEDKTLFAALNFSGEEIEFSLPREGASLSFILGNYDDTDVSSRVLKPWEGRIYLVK
# Description: Specifically, the α-glucosidase inhibitory activity was performed using the nitrophenol method as described by Kato, et al., (J. Med. Chem 48: 2036-2044, 2005) with slight modification. An accumulation amount was measured by the optical density of a chromophoric group of monosaccharides such as glucose, which was generated by hydrolysis of a substrate p-nitrophenyl-[…] (Sigma-Aldrich) by means of α-glucosidase (EC 3.2.1.20, Baker Yeast).
# Fifty μl of a buffer solution (70 mM calcium phosphate, pH 6.8), 50 μl of a sample extract or a compound dissolved in 50% DMSO, and 50 μl of α-glucosidase (0.1 unit/ml) were injected into a 96-well plate (NUNC™ Co.) and a substrate (5 mM, p-nitrophenyl-α-D-glucopyranoside) was finally added therein, after which a resulting plate was reacted at 37° C. for 30 minutes, such that 2 M NaOH was added therein to finish a reaction thereof. An amount of a chromophoric group generated was measured at 405 nm by using a microplate reader (ANTHOS™ Co.) to calculate an inhibitory activity.
DPP-4 Inhibitory Activity (%) (human recombinant DPP-IV; sample concentration 200 μM),"DPP-4 Inhibitory Activity (%) (human recombinant DPP-IV; sample concentration 200 μM, listed as quercetin)",Structure (SMILES),LDL Oxidation Inhibitory Activity [1] [%],DPPH Radical Scavenging Activity [2] [%],activation at 100 µM (MIN6 β-cells) [%],IC50 [1] [nM],inhibition at 200 µM (human recombinant DPP-IV; sample concentration 200 μM) [%],inhibition at 100 µM (RAW264.7 cells) [%],inhibition at 100 µM [3] [%],increase in amount of insulin secretion relative to its aglycone (MIN6 β-cells),inhibition at 200 µM (human recombinant DPP-IV) [%]
,,"O=c1c(O[C@@H]2OC(CC[C@@H]3OC(O)[C@H](O)C(O)C3O)[C@H](O)C(O)C2O[C@@H]2OC(CO)[C@@H](O)C(O)C2O)c(-c2ccc(O)cc2)oc2cc(O)cc(O)c12 (some centres unmarked) [Comparative Example 2, reference compound]",28.4,8.0 ± 0.7,,,,,,,
,,"O=c1c(O[C@@H]2OC(CC[C@@H]3OC(O)[C@H](O)C(O)C3O)[C@H](O)C(O)C2O[C@@H]2OC(O)[C@H](O)C(O)C2O)c(-c2ccc(O)cc2)oc2cc(O)cc(O)c12 (some centres unmarked) [Comparative Example 3, reference compound]",,4.0 ± 0.6,≤ 19,,,,,,
,,"O=c1c(-c2ccc(O)cc2)coc2cc(O[C@@H]3O[C@H](CO)[C@@H](O)[C@H](O)[C@H]3O)cc(O)c12 [Comparative Example 4, Genistin, reference compound]",41.3,3.4 ± 0.7,,,,,,,
,,"C[C@@H]1O[C@@H](OC[C@H]2O[C@@H](Oc3c(-c4ccc(O)c(O)c4)oc4cc(O)cc(O)c4c3=O)[C@H](O[C@@H]3O[C@H](CO)[C@@H](O)[C@H](O)[C@H]3O)[C@@H](O)[C@H]2O)[C@H](O)[C@H](O)[C@H]1O [Formula 1, quercetin 3-O-β-D-glucopyranosyl-(1→2)-[α-L-rhamnopyranosyl-(1→6)]-β-D-galactopyranoside]",,60.3 ± 1.4,2.1 ± 0.1,1800,48.4 ± 1,37.3 ± 1.8,10.8 ± 0.8,,
,,"C[C@@H]1O[C@@H](OC[C@H]2O[C@@H](Oc3c(-c4ccc(O)c(O)c4)oc4cc(O)cc(O)c4c3=O)[C@H](O[C@@H]3O[C@H](CO)[C@@H](O)[C@H](O)[C@H]3O)[C@@H](O)[C@@H]2O)[C@H](O)[C@H](O)[C@H]1O [Formula 2, quercetin 3-O-β-D-glucopyranosyl-(1→2)-[α-L-rhamnopyranosyl-(1→6)]-β-D-glucopyranoside]",,52.0 ± 0.1,25.3 ± 3.3,1900,42.2 ± 0.9,31.8 ± 1.7,8.7 ± 2,,
,,"O=c1c(O[C@@H]2OC(CO)[C@H](O)C(O)C2O[C@@H]2OC(CO)[C@@H](O)C(O)C2O)c(-c2ccc(O)c(O)c2)oc2cc(O)cc(O)c12 (stereo partly drawn) [Formula 3, quercetin 3-O-(2-β-D-glucopyranosyl)-β-D-galactopyranoside]",,64.8 ± 0.9,37.8 ± 5.4,2100,46.7 ± 1.5,44.1 ± 2.8,63.9 ± 0.2,,
,,"O=c1c(O[C@@H]2OC(CO)[C@@H](O)C(O)C2O[C@@H]2OC(CO)[C@@H](O)C(O)C2O)c(-c2ccc(O)c(O)c2)oc2cc(O)cc(O)c12 (stereo partly drawn) [Formula 4, quercetin 3-O-(2-β-D-glucopyranosyl)-β-D-glucopyranoside]",,59.5 ± 0.5,63.6 ± 2.6,2300,42.5 ± 1.5,26 ± 1.9,23.4 ± 2.3,twice,
,,"CC1O[C@@H](OC2C(O)[C@@H](O)C(CO)O[C@H]2Oc2c(-c3ccc(O)c(O)c3)oc3cc(O)cc(O)c3c2=O)C(O)C(O)[C@H]1O (stereo partly drawn) [Formula 5, quercetin 3-O-(2-α-D-rhamnopyranosyl)-β-D-galactopyranoside]",,85.9 ± 0.4,24.3 ± 2.7,400,,23.7 ± 1.4,17.6 ± 2.3,,48.7 ± 0.4
,,"COc1cc(-c2oc3cc(O)cc(O)c3c(=O)c2O[C@@H]2OC(CO)[C@H](O)C(O)C2O[C@@H]2OC(CO)[C@@H](O)C(O)C2O)ccc1O (stereo partly drawn) [Formula 6, isorhamnetin 3-O-(2-β-D-glucopyranosyl)-β-D-galactopyranoside]",65.7,11.5 ± 0.5,38.5 ± 3.3,,39.4,58.8 ± 0.9,26.2 ± 1.7,,
,,"COc1cc(-c2oc3cc(O)cc(O)c3c(=O)c2O[C@@H]2OC(CO)[C@H](O)C(O)C2O[C@@H]2OC(C)[C@H](O)C(O)C2O)ccc1O (stereo partly drawn) [Formula 7, isorhamnetin 3-O-α-L-rhamnopyranosyl-(1→2)-β-D-galactopyranoside]",55.7,7.5 ± 0.6,106 ± 5.1,,48.1,21.9 ± 0.6,22.7 ± 0.9,four,
,,"COc1cc(-c2oc3cc(O)cc(O)c3c(=O)c2O)ccc1O [Isorhamnetin, reference compound]",,,26.6 ± 4.1,,21.6,,,,
,,"O=c1c(O)c(-c2ccc(O)cc2)oc2cc(O)cc(O)c12 [Kaempferol, reference compound]",,,≤ 19,,,,,,
14.5 ± 1.5,145,"O=c1c(O)c(-c2ccc(O)c(O)c2)oc2cc(O)cc(O)c12 [Quercetin, reference compound]",,,35.6 ± 3.4,,,,,,
